“Also recorded” adds a separate entry of the source.
Tests used:
Format in all cases: cell-based
HT1080 cells [1] = experiment: Intracellular kinetics: decapsulation of pDNA from MEND (confocal microscopy); settings: 3 hr after transfection
Description: For MEND preparation, the Rhodamine-labeled pDNA prepared by the method of [Experimental Example 1] (4) was used. In addition, the fluorescence label of the lipid constituting MEND was measured by the method described in [Experimental Example 1] (3). MENDs having a composition of cationic lipid:SOPE:Chol=5:3:2 were prepared by the method described in [Experimental Example 1] (2). For the preparation, PEG2000-DMG was used as PEG lipid, and MEND solutions corresponding to 0.55 mM of the lipid concentration were prepared. For cationic MEND, a lipid having a composition of DOTAP:DOPE:Chol:=3:4:3 was used, and the cationic MEND was prepared according to the method described in [Experimental Example 1] (3). […]
HT1080 cells were plated on a glass bottom dish at 1×10^5 cells/2 mL/dish 24 hr before. B-2 MEND was diluted with Krebs buffer to achieve pDNA 8 μg/1 mL Krebs buffer/dish. As for B-2-1 or DOTAP MEND, MEND was diluted with Krebs buffer to achieve pDNA 1.6 μg/1 mL Krebs buffer/dish and transfected. After 2.5 hr, Hoechst 33342 was added at 1 μL/dish and, 30 min later, the cells were washed twice with heparin solution (20 units/mL, 2 mL), Krebs buffer (1 mL) was added, and the cells were observed by a confocal laser scan microscope.
Rhodamine-labeled pDNA, lipid membrane of MEND and nucleus were shown in pseudo colors of red, green and blue, respectively.

HT1080 cells [2] = experiment: Influence of endosome/lysosome acidification inhibition (bafilomycin A1) on gene expression activity; settings: 0.5 μM bafilomycin A1
Description: Using B-2 (Example 1), B-2-1 (Comparative Example 1), and DODAP (Comparative Example 2) as cationic lipids, MENDs having a composition of cationic lipid:SOPE:Chol=5:3:2 were prepared by the method described in [Experimental Example 1] (2). For the preparation, PEG2000-DMG was used as PEG lipid, and MEND solutions corresponding to 0.55 mM of the lipid concentration were prepared. For cationic MEND, lipids having a composition of DOTAP (Comparative Example 3):DOPE:Chol:=3:4:3 were used, and the cationic MEND was prepared according to the method described in [Experimental Example 1] (3).
HT1080 cells were plated on a 24-well plate at 4×10^4 cell/500 μL/well 24 hr before, bafilomycin A1 was added at 0.5 μM 30 min before for a pre-treatment. Various MENDs were diluted with DMEM (FBS 10%+) to a pDNA amount of 0.4 μg/500 μL/well, bafilomycin A1 was added at 0.5 μM, and transfection was performed. 3 hr later, the MEND solution was removed, and DMEM (FBS 10%+) was added at 500 μL/well to change the medium. 24 hr later, the cells were washed with PBS(−) (500 μL), 1× Lysis buffer was added to each well by 75 μL, and the mixture was stood at −80° C. for 30 min or longer. The frozen 24-well plate was thawed on ice, the cells were detached with a cell scraper, and the total amount thereof was transferred into an Eppendorf tube and centrifuged under the conditions of 15000 rpm, 4° C., 5 min. The supernatant (50 μL) was recovered in a different Eppendorf tube, and used for luciferase assay and BCA assay. The gene expression was evaluated by the method described in [Example 4] (2).

HT1080 cells [3] = experiment: Gene expression by MEND (luciferase assay, RLU/mg protein); settings: for gene expression activity: B-2-4:DOPE:Chol=3:3:4, B-2-5:POPE:Chol=3:3:4, B-2:SOPE:Chol=5:3:2, PEG2000-DMG; for gene expression activity (luciferase activity per cell protein): cationic lipid:SOPE:Chol=3:4:3, PEG2000DSG, pDNA 0.4 μg/well, 24 hr
Description: Using B-2 (Example 1), B-2-1 (Comparative Example 1), and DODAP (Comparative Example 2) as cationic lipids, MENDs having a composition of cationic lipid:SOPE:Chol=3:4:3 were prepared by the method described in [Experimental Example 1] (2). For the preparation, PEG2000DSG was used as PEG lipid, and MEND solutions corresponding to 0.55 mM of the lipid concentration were prepared. For cationic MEND, lipids having a composition of DOTAP:DOPE:Chol:=3:4:3 were used, and the cationic MEND was prepared according to the method described in [Experimental Example 1] (3).
HT1080 cells were plated on a 24-well plate at 4×10^4 cells/500 μL/well 24 hr before, various MENDs were diluted with DMEM (FBS 10%+) to a pDNA amount of 0.4 μg/500 μL/well and transfected. 24 hr later, the cells were washed with PBS(−) (500 μL), 1× Lysis buffer was added to each well by 75 μL, and the mixture was stood at −80° C. for 30 min or longer. The frozen 24-well plate was thawed on ice, the cells were detached with a cell scraper, and the total amount thereof was transferred into an Eppendorf tube and centrifuged under the conditions of 15000 rpm, 4° C., 5 min. The supernatant (50 μL) was recovered in a different Eppendorf tube, and used for luciferase assay and BCA assay.
20 μL thereof was mixed with a Luciferase assay substrate (50 μL), and the luciferase activity in a given time was measured by a luminometer. The obtained lysate was diluted 5-fold with DDW to achieve 25 μL total volume. Thereto was added BCA Protein Assay Reagent (200 μL), and the mixture was stood at 37° C. for 30 min. Thereafter, the absorbance at 562 nm was measured, and the protein amount of the sample was calculated from the absorbance of a BSA solution having a known concentration. The luciferase activity (RLU) was adjusted by dividing with protein amount (mg), and the luciferase activity per cell protein amount (RLU/mg protein) was calculated.
Using B-2 (Example 1), B-2-2 (Example 2), and B-2-3 (Example 3) as cationic lipids, MENDs having a composition of cationic lipid:SOPE:Chol=3:4:3 were prepared by the method described in [Experimental Example 1] (2). For the preparation, PEG2000DSG was used as PEG lipid, and MEND solutions corresponding to 0.55 mM of the lipid concentration were prepared. The gene expression was evaluated by the method described in [Example 4] (2).
Using compositions of B-2-4 (Example 4):DOPE:Chol=3:3:4, B-2-5 (Example 5):POPE:Chol=3:3:4, B-2 (Example 1):SOPE:Chol=5:3:2 as lipids, MENDs were prepared according to [Experimental Example 1](1) and (2). For the preparation, PEG2000-DMG was used as PEG lipid, and MEND solutions corresponding to 0.55 mM of the lipid concentration were prepared.
The gene expression activity was evaluated by the method described in [Experimental Example 4] (2).

Compound | gene decapsulation (colocalization of pDNA red and MEND lipid green) (HT1080 cells [1]) | gene expression activity under bafilomycin A1 (HT1080 cells [2]) | gene expression activity (HT1080 cells [3]) | gene transfer activity divided by the intracellular uptake amount (HT1080 cells [3]; FIG. 4) | gene expression activity (luciferase activity per cell protein) (HT1080 cells [3])
CCCCCCCC/C=C\CCCCCCCC(=O)OCC(C[N+](C)(C)C)OC(=O)CCCCCCC/C=C\CCCCCCCC (stereo not drawn) [DOTAP, reference compound] | Red dots were notable | did not show a decrease in the gene expression activity |  |  | 
CCCCCCCC/C=C\CCCCCCCC(=O)OCC(CN(C)C)OC(=O)CCCCCCC/C=C\CCCCCCCC (stereo not drawn) [DODAP, reference compound] |  | showed a decrease in the gene expression activity |  |  | 
Cc1c(C)c2c(c(C)c1OC(=O)CCC(=O)OCCCN(C)CCSSCCN(C)CCCOC(=O)CCC(=O)Oc1c(C)c(C)c3c(c1C)CCC(C)(CCCC(C)CCCC(C)CCCC(C)C)O3)CCC(C)(CCCC(C)CCCC(C)CCCC(C)C)O2 (stereo not drawn) [Example B-2-5] |  |  | equivalent to the activity of B-2 |  | 
CCCCCCCCCCCCCC(=O)OCCCN(C)CCSSCCN(C)CCCOC(=O)CCCCCCCCCCCCC [Example B-2] | Red dots were notable | showed a decrease in the gene expression activity |  | high as compared to conventional DOTAP, DODAP and B-2-1 | exceeded that of a conventionally-known cationic lipid, DODAP; also recorded: significantly higher than that of MEND prepared from B-2-1; also recorded: equivalent to that of DOTAP
CCCCCCCCCCCCCC(=O)OCCCN(C)CCCCCCN(C)CCCOC(=O)CCCCCCCCCCCCC [Example B-2-1, reference compound] | clear colocalization of red and green | did not show a decrease in the gene expression activity |  |  | exceeded that of a conventionally-known cationic lipid, DODAP
CC1=C(/C=C/C(C)=C/C=C/C(C)=C/C(=O)OCCCN(C)CCSSCCN(C)CCCOC(=O)/C=C(C)/C=C/C=C(C)/C=C/C2=C(C)CCCC2(C)C)C(C)(C)CCC1 [Example B-2-4] |  |  | significantly higher than the activity of B-2 and B-2-5 |  | 

Reference: US9708628B2, “Cationic lipid having improved intracellular kinetics” (NOF CORPORATION, priority 2011, dated 2017)
